From PubChem BioAssay (NCI)
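Dose response: 5 concentrations. Exposure: 48 h. Format: 96-well plates. Endpoint: linear interpolation; highest concentration if not reached. GI50 marks 50% less growth. TGI is the concentration that stops growth completely.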

Key:
Test in all cases: NCI tumour cell line growth inhibition, 48 h
RXF 393 renal = system: RXF 393 renal
DU-145 prostate = system: DU-145 prostate
NCI-H23 lung = system: NCI-H23 lung
EKVX NSCLC = system: EKVX NSCLC
HL-60(TB) leukemia = system: HL-60(TB) leukemia
MDA-MB-435 = system: MDA-MB-435
CCRF-CEM leukemia = system: CCRF-CEM leukemia
HOP-92 NSCLC = system: HOP-92 NSCLC
MDA-MB-231 breast = system: MDA-MB-231 breast
HCT-116 colon = system: HCT-116 colon
SNB-75 CNS = system: SNB-75 CNS
SN12C renal = system: SN12C renal
HS 578T breast = system: HS 578T breast
OVCAR-4 ovarian = system: OVCAR-4 ovarian
LOX IMVI melanoma = system: LOX IMVI melanoma
A498 renal = system: A498 renal
COLO 205 colon = system: COLO 205 colon
K-562 leukemia = system: K-562 leukemia
U251 CNS = system: U251 CNS
SR leukemia = system: SR leukemia
MDA-MB-468 breast = system: MDA-MB-468 breast
TK-10 renal = system: TK-10 renal
ACHN renal = system: ACHN renal
MALME-3M melanoma = system: MALME-3M melanoma
NCI-H226 lung = system: NCI-H226 lung
T-47D breast = system: T-47D breast
786-0 renal = system: 786-0 renal
CAKI-1 renal = system: CAKI-1 renal
OVCAR-3 ovarian = system: OVCAR-3 ovarian
M14 melanoma = system: M14 melanoma
HCT-15 colon = system: HCT-15 colon
PC-3 prostate = system: PC-3 prostate
RPMI-8226 leukemia = system: RPMI-8226 leukemia
UO-31 renal = system: UO-31 renal
SK-MEL-5 melanoma = system: SK-MEL-5 melanoma
SK-OV-3 ovarian = system: SK-OV-3 ovarian
SNB-19 CNS = system: SNB-19 CNS
SK-MEL-28 melanoma = system: SK-MEL-28 melanoma
HCC-2998 colon = system: HCC-2998 colon
NCI-H522 lung = system: NCI-H522 lung
MOLT-4 leukemia = system: MOLT-4 leukemia
HOP-62 NSCLC = system: HOP-62 NSCLC
IGROV1 ovarian = system: IGROV1 ovarian
SF-295 CNS = system: SF-295 CNS
NCI-H460 lung = system: NCI-H460 lung
A549 NSCLC = system: A549 NSCLC
SF-539 CNS = system: SF-539 CNS
UACC-62 melanoma = system: UACC-62 melanoma
OVCAR-8 ovarian = system: OVCAR-8 ovarian
OVCAR-5 ovarian = system: OVCAR-5 ovarian
UACC-257 melanoma = system: UACC-257 melanoma
SK-MEL-2 melanoma = system: SK-MEL-2 melanoma
SW-620 colon = system: SW-620 colon
KM12 colon = system: KM12 colon
MCF7 breast = system: MCF7 breast
BT-549 breast = system: BT-549 breast
HT29 colon = system: HT29 colon
SF-268 CNS = system: SF-268 CNS
NCI/ADR-RES ovarian = system: NCI/ADR-RES ovarian

## O=C1Nc2ccc(F)cc2/C1=C/c1cccc(OCc2ccccc2)c1
RXF 393 renal
  GI50: 13.7 µM
  TGI: 29.8 µM
DU-145 prostate
  GI50: 14.8 µM
  TGI: 31.4 µM
NCI-H23 lung
  GI50: 11.7 µM
  TGI: 27.5 µM
EKVX NSCLC
  GI50: 12.8 µM
  TGI: 27.8 µM
HL-60(TB) leukemia
  GI50: 11.7 µM
  TGI: 34.1 µM
MDA-MB-435
  GI50: 15.1 µM
  TGI: 29 µM
CCRF-CEM leukemia
  GI50: 12.4 µM
  TGI: 35.2 µM
HOP-92 NSCLC
  GI50: 3.76 µM
  TGI: 17.1 µM
MDA-MB-231 breast
  GI50: 13.8 µM
  TGI: 29.2 µM
HCT-116 colon
  GI50: 10.5 µM
  TGI: 25.9 µM
SNB-75 CNS
  GI50: 14.7 µM
  TGI: 43.3 µM
SN12C renal
  GI50: 13.4 µM
  TGI: 26.8 µM
HS 578T breast
  GI50: 15.4 µM
  TGI: 57.9 µM
OVCAR-4 ovarian
  GI50: 9.89 µM
  TGI: 30.2 µM
LOX IMVI melanoma
  GI50: 8.51 µM
  TGI: 28.7 µM
A498 renal
  GI50: 29.7 µM
  TGI: > 100 µM
COLO 205 colon
  GI50: 17.8 µM
  TGI: 35.5 µM
K-562 leukemia
  GI50: 10.5 µM
  TGI: 31.8 µM
U251 CNS
  GI50: 12.6 µM
  TGI: 32.6 µM
SR leukemia
  GI50: 4.83 µM
  TGI: 23.1 µM
MDA-MB-468 breast
  GI50: 10.8 µM
  TGI: 23.6 µM
TK-10 renal
  GI50: 19.6 µM
  TGI: 41.9 µM
ACHN renal
  GI50: 13.5 µM
  TGI: 26.5 µM
MALME-3M melanoma
  GI50: 15.5 µM
  TGI: 29 µM
NCI-H226 lung
  GI50: 12.5 µM
  TGI: 27.1 µM
T-47D breast
  GI50: 12.1 µM
  TGI: 62 µM
786-0 renal
  GI50: 14.5 µM
  TGI: 29.5 µM
CAKI-1 renal
  GI50: 8.46 µM
  TGI: 21.7 µM
OVCAR-3 ovarian
  GI50: 11.8 µM
  TGI: 24.7 µM
M14 melanoma
  GI50: 14.9 µM
  TGI: 31.5 µM
HCT-15 colon
  GI50: 11.9 µM
  TGI: 29.3 µM
PC-3 prostate
  GI50: 13.8 µM
  TGI: 30.3 µM
RPMI-8226 leukemia
  GI50: 10.7 µM
  TGI: 30.7 µM
UO-31 renal
  GI50: 10 µM
  TGI: 21.7 µM
SK-MEL-5 melanoma
  GI50: 15.8 µM
  TGI: 29.8 µM
SK-OV-3 ovarian
  GI50: 16.7 µM
  TGI: 39.4 µM
SNB-19 CNS
  GI50: 14.2 µM
  TGI: 29.2 µM
SK-MEL-28 melanoma
  GI50: 16 µM
  TGI: 30.1 µM
HCC-2998 colon
  GI50: 16.3 µM
  TGI: 31.7 µM
NCI-H522 lung
  GI50: 12.4 µM
  TGI: 27.3 µM
MOLT-4 leukemia
  GI50: 6.85 µM
  TGI: 30.2 µM
HOP-62 NSCLC
  GI50: 16.2 µM
  TGI: 37.1 µM
IGROV1 ovarian
  GI50: 13.4 µM
  TGI: 27.1 µM
SF-295 CNS
  GI50: 15.2 µM
  TGI: 34.2 µM
NCI-H460 lung
  GI50: 14.1 µM
  TGI: 28.7 µM
A549 NSCLC
  GI50: 18.6 µM
  TGI: 75 µM
SF-539 CNS
  GI50: 14.8 µM
  TGI: 28.1 µM
UACC-62 melanoma
  GI50: 10.4 µM
  TGI: 22.5 µM
OVCAR-8 ovarian
  GI50: 20.1 µM
  TGI: 57.8 µM
OVCAR-5 ovarian
  GI50: 16.5 µM
  TGI: 30.6 µM
UACC-257 melanoma
  GI50: 16.8 µM
  TGI: 36.2 µM
SK-MEL-2 melanoma
  GI50: 12.9 µM
  TGI: 27.8 µM
SW-620 colon
  GI50: 15.1 µM
  TGI: 29.4 µM
KM12 colon
  GI50: 13.7 µM
  TGI: 32.4 µM
MCF7 breast
  GI50: 5.44 µM
  TGI: 21.8 µM
BT-549 breast
  GI50: 10.5 µM
  TGI: 23.4 µM
HT29 colon
  GI50: 17.8 µM
  TGI: 35.4 µM
SF-268 CNS
  GI50: 14 µM
  TGI: 34.2 µM

## O=C(NCCCCC(c1ccc(F)cc1)c1ccc(F)cc1)NCCCc1cccnc1
RXF 393 renal
  GI50: 12.4 µM
  TGI: 27.3 µM
DU-145 prostate
  GI50: 0.721 µM
  TGI: 17.2 µM
NCI-H23 lung
  GI50: 6.8 µM
  TGI: 23 µM
EKVX NSCLC
  GI50: 5.01 µM
  TGI: 23.6 µM
HL-60(TB) leukemia
  GI50: 1.64 µM
  TGI: > 39.4 µM
MDA-MB-435
  GI50: 0.444 µM
  TGI: 15 µM
CCRF-CEM leukemia
  GI50: 0.33 µM
  TGI: 24.6 µM
HOP-92 NSCLC
  GI50: 10.4 µM
  TGI: 26.5 µM
MDA-MB-231 breast
  GI50: 4.94 µM
  TGI: 20.9 µM
HCT-116 colon
  GI50: 0.0931 µM
  TGI: 13 µM
SNB-75 CNS
  GI50: 8.64 µM
  TGI: 26.8 µM
SN12C renal
  GI50: 0.133 µM
  TGI: 15.2 µM
HS 578T breast
  GI50: 5.04 µM
  TGI: 34.9 µM
OVCAR-4 ovarian
  GI50: 4.71 µM
  TGI: 53.1 µM
LOX IMVI melanoma
  GI50: 10.7 µM
  TGI: 23.4 µM
A498 renal
  GI50: 18.3 µM
  TGI: 32.9 µM
COLO 205 colon
  GI50: 0.877 µM
  TGI: 16.2 µM
K-562 leukemia
  GI50: 0.385 µM
  TGI: > 100 µM
U251 CNS
  GI50: 3.88 µM
  TGI: 22.1 µM
SR leukemia
  GI50: 3.17 µM
  TGI: > 100 µM
MDA-MB-468 breast
  GI50: 1.53 µM
  TGI: 10.6 µM
TK-10 renal
  GI50: 13.7 µM
  TGI: 29.2 µM
ACHN renal
  GI50: 9.16 µM
  TGI: 22.8 µM
MALME-3M melanoma
  GI50: 8.47 µM
  TGI: 21.7 µM
NCI-H226 lung
  GI50: 12.3 µM
  TGI: 29 µM
T-47D breast
  GI50: 0.749 µM
  TGI: 16.1 µM
NCI/ADR-RES ovarian
  GI50: 0.584 µM
  TGI: 17.3 µM
786-0 renal
  GI50: 13.3 µM
  TGI: 37.1 µM
CAKI-1 renal
  GI50: 5.87 µM
  TGI: 25.3 µM
OVCAR-3 ovarian
  GI50: 4.58 µM
  TGI: 22.4 µM
M14 melanoma
  GI50: 0.607 µM
  TGI: 16.4 µM
HCT-15 colon
  GI50: 0.461 µM
  TGI: 14.9 µM
PC-3 prostate
  GI50: 0.645 µM
  TGI: 19 µM
RPMI-8226 leukemia
  GI50: 0.627 µM
  TGI: 20.3 µM
UO-31 renal
  GI50: 5.51 µM
  TGI: 20.1 µM
SK-MEL-5 melanoma
  GI50: 1.22 µM
  TGI: 9.46 µM
SK-OV-3 ovarian
  GI50: 10.9 µM
  TGI: 29 µM
SNB-19 CNS
  GI50: 1.79 µM
  TGI: 18.5 µM
SK-MEL-28 melanoma
  GI50: 10.6 µM
  TGI: 23.5 µM
HCC-2998 colon
  GI50: 0.822 µM
  TGI: 17.3 µM
NCI-H522 lung
  GI50: 0.546 µM
  TGI: 16.1 µM
MOLT-4 leukemia
  GI50: 1.13 µM
  TGI: > 50.5 µM
HOP-62 NSCLC
  GI50: 14.6 µM
  TGI: 30.2 µM
IGROV1 ovarian
  GI50: 0.816 µM
  TGI: 19.2 µM
SF-295 CNS
  GI50: 1.82 µM
  TGI: 15.4 µM
NCI-H460 lung
  GI50: 3.23 µM
  TGI: 19.4 µM
A549 NSCLC
  GI50: 2.62 µM
  TGI: 40.5 µM
SF-539 CNS
  GI50: 0.0974 µM
  TGI: 11.9 µM
UACC-62 melanoma
  GI50: 7.11 µM
  TGI: 20.2 µM
OVCAR-8 ovarian
  GI50: 0.127 µM
  TGI: 26.4 µM
OVCAR-5 ovarian
  GI50: 0.628 µM
  TGI: 17.8 µM
UACC-257 melanoma
  GI50: 9.06 µM
  TGI: 23.8 µM
SK-MEL-2 melanoma
  GI50: 4.24 µM
  TGI: 16.9 µM
SW-620 colon
  GI50: 0.297 µM
  TGI: 15.7 µM
KM12 colon
  GI50: 0.81 µM
  TGI: 18.4 µM
MCF7 breast
  GI50: 3.61 µM
  TGI: 20.3 µM
BT-549 breast
  GI50: 3.21 µM
  TGI: 15.3 µM
HT29 colon
  GI50: 0.619 µM
  TGI: 17 µM
SF-268 CNS
  GI50: 12.3 µM
  TGI: 29.2 µM
